In US20050153033A1, “Lactic acid bacteria for the treatment of food” (priority 2003, published 2005):

Tested on: C. maltaromaticum strains (CB1, CB2, CB3, LV17, UAL26, ATCC 35586 and ATCC43225)
Assay: Antibiotic resistance, overall statement for the strains tested
Assay type: cell-based, Carnobacterium maltaromaticum
Settings: overall statement on Table 3
From the text: The strains specified in this GRAS document (e.g., Carnobacterium maltaromaticum strains CB1, CB2, CB3, LV17, UAL26, ATCC 35586 AND ATCC43225) have been tested for their resistance to 27 antibiotics (Table 3; Griffiths Labs, 2004).

Molecule | Sensitivity of the C. maltaromaticum strains tested, overall
O=C(N[C@H](CO)[C@H](O)c1ccc([N+](=O)[O-])cc1)C(Cl)Cl [Chloramphenicol] | sensitive
O=C(O)c1cn(C2CC2)c2cc(N3CCNCC3)c(F)cc2c1=O [Ciprofloxacin] | sensitive
CC[C@H]1OC(=O)[C@H](C)[C@@H](O[C@H]2C[C@@](C)(OC)[C@@H](O)[C@H](C)O2)[C@H](C)[C@@H](O[C@@H]2O[C@H](C)C[C@H](N(C)C)[C@H]2O)[C@](C)(O)C[C@@H](C)C(=O)[C@H](C)[C@@H](O)[C@]1(C)O [Erythromycin] | sensitive
CCN[C@@H]1C[C@H](N)[C@@H](O[C@H]2OC(CN)=CC[C@H]2N)[C@H](O)[C@H]1O[C@H]1OC[C@](C)(O)[C@H](NC)[C@H]1O [Netilmicin] | sensitive
CO[C@H]1/C=C/O[C@@]2(C)Oc3c(C)c(O)c4c(O)c(c(/C=N/N5CCN(C)CC5)c(O)c4c3C2=O)NC(=O)/C(C)=C\C=C\[C@H](C)[C@H](O)[C@@H](C)[C@@H](O)[C@@H](C)[C@H](OC(C)=O)[C@@H]1C [Rifampin] | sensitive
NC[C@H]1O[C@H](O[C@H]2[C@H](O)[C@@H](O[C@H]3O[C@H](CO)[C@@H](O)[C@H](N)[C@H]3O)[C@H](N)C[C@@H]2N)[C@H](N)C[C@@H]1O [Tobramycin] | sensitive
Amoxicillin + clavulanic acid | sensitive
Gentamicin | sensitive
